Experimental data taken from US8247211B2, “Glycopeptide antibiotics” (American Cyanamid Company, priority 2001, dated 2012).
≈ marks a conversion by molar mass, not a printed value.

Tests used:
Enterococcus sp. = test: In vitro antibacterial evaluation: minimum inhibitory concentration (MIC), broth dilution method; type: cell-based; settings: broth dilution, 5×10^5 CFU/mL, 18 hours at 35° C.
Procedure, shortened: (§1)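 Following NCCLS approved standard M7-A2, compounds are serially diluted from 64 to 0.06 μg/mL in Muller-Hinton II […] and inoculated at 5×10^5 CFU/mL; the MIC is the minimum concentration at which growth is inhibited.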

Escherichia coli = test: as above; type: cell-based; settings: 5×10^5 CFU/mL, 18 hours at 35° C.
Procedure, shortened: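 First, organisms are seeded at 5×10^5 CFU/mL into Muller-Hinton II […]. Next, antibiotic is applied across 64-0.06 μg/mL by broth dilution (NCCLS M7-A2). Finally, the lowest inhibitory concentration is recorded as MIC.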

Staphylococcus sp. = test: as above; type: cell-based; settings: for MIC Staphylococcus aureus (ATCC 29213): strain ATCC 29213; for MIC Staphylococcus aureus (GC 1131): strain GC 1131; for MIC Staphylococcus aureus (GC 3051): strain GC 3051; for MIC Staphylococcus aureus (GC 3053): strain GC 3053; for MIC Staphylococcus aureus (GC 4541): strain GC 4541; for MIC Staphylococcus aureus (GC 4542): strain GC 4542; for MIC Staphylococcus aureus (GC 4544): strain GC 4544; for MIC Staphylococcus aureus (GC 4545): strain GC 4545
Procedure, shortened: as §1

Streptococcus sp. = test: as above; type: cell-based; settings: broth dilution, 5×10^5 CFU/mL, 18 hours at 35° C.
Procedure, shortened: as §1

[1] = test system: Enterococcus faecalis (GC 6189), vancomycin resistant strain; test: Acute lethal infection in mice (ED50); type: in vivo; settings: female CD-1 mice, intraperitoneal challenge, intravenous dose 30 min. after infection, 7 day survival ratios
Procedure, shortened: (§2)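 Female CD-1 mice challenged intraperitoneally with a bacterial dose lethal to untreated controls within 24-48 h. Compound given intravenously in saline or 5% dextrose 30 min post-infection, five mice per dose; ED50 from 7-day survival pooled over 3 tests.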

[2] = test system: Staphylococcus aureus-SMITH (GC 4543); test: Acute lethal infection in mice (ED50); type: in vivo; settings: female CD-1 mice, intraperitoneal challenge, intravenous dose 30 min. after infection, 7 day survival ratios
Procedure, shortened: as §2

[3] = broth dilution, 18 hours at 35° C.
[4] = strain GC 4543, broth dilution, 18 hours at 35° C.
[5] = strain GC 4546, broth dilution, 18 hours at 35° C.
[6] = strain GC 4547, broth dilution, 18 hours at 35° C.
[7] = strain GC 4548, broth dilution, 18 hours at 35° C.
[8] = strain GC 4549, broth dilution, 18 hours at 35° C.
[9] = strain GC 4551, broth dilution, 18 hours at 35° C.
[10] = strain GC 6257, broth dilution, 18 hours at 35° C.
[11] = broth dilution, 5×10^5 CFU/mL, 18 hours at 35° C.

## Cc1ccc(CC2OCC3OC(OC4C(CO)OC(Oc5ccc(CC6NC(=O)C(C(C)c7ccccc7)NC(=O)CNC(=O)C(CO)NC(=O)C(C(O)C7CNC(=N)N7C7OC(CO)C(O)C(O)C7O)NC(=O)C(C(O)C7CNC(=N)N7)NC6=O)cc5)C(O)C4O)C(O)C(O)C3O2)cc1 (stereo not drawn) [Example 119, Cyclo[glycyl-β-methylphenylalanyl-O-[4-O-[4,6-O-(4-methylphenethylidene)hexopyranosyl]-hexopyranosyl]tyrosyl-3-(2-iminoimidazolidin-4-yl)seryl-3-(3-hexopyranosyl-2-iminoimidazolidin-4-yl)serylseryl]]
Enterococcus sp.
  MIC Enterococccus avium (GC 4558): 4 µg/mL (≈ 2.83 µM)
  MIC Enterococccus faecalis (ATCC 29212): 2 µg/mL (≈ 1.42 µM)
  MIC Enterococccus faecalis (GC 2691): 2 µg/mL (≈ 1.42 µM)
  MIC Enterococccus faecalis (GC 3059): >64 µg/mL
  MIC Enterococccus faecalis (GC 4552): 2 µg/mL (≈ 1.42 µM)
  MIC Enterococccus faecalis (GC 4553): 4 µg/mL (≈ 2.83 µM)
  MIC Enterococccus faecalis (GC 4554): 2 µg/mL (≈ 1.42 µM)
  MIC Enterococccus faecalis (GC 6189): 2 µg/mL (≈ 1.42 µM)
  MIC Enterococccus faecium (GC 2243): 4 µg/mL (≈ 2.83 µM)
  MIC Enterococccus faecium (GC 4556): 2 µg/mL (≈ 1.42 µM)
  MIC Enterococccus faecium (GC 4557): 1 µg/mL (≈ 0.708 µM)
  MIC Enterococcus faecalis (GC 2242): 2 µg/mL (≈ 1.42 µM)
Escherichia coli
  MIC Escherichia coli (ATCC 25922): 32 µg/mL (≈ 22.7 µM)
  MIC Escherichia coli (GC 4559): 32 µg/mL (≈ 22.7 µM)
  MIC Escherichia coli (GC 4560): 1 µg/mL (≈ 0.708 µM)
Staphylococcus sp.
  MIC Staphylococcus aureus (ATCC 29213): 1 µg/mL (≈ 0.708 µM)
  MIC Staphylococcus aureus (GC 1131): 1 µg/mL (≈ 0.708 µM)
  MIC Staphylococcus aureus (GC 3051): 1 µg/mL (≈ 0.708 µM)
  MIC Staphylococcus aureus (GC 3053): 2 µg/mL (≈ 1.42 µM)
  MIC Staphylococcus aureus (GC 4541): 1 µg/mL (≈ 0.708 µM)
  MIC Staphylococcus aureus (GC 4542): 1 µg/mL (≈ 0.708 µM)
  MIC Staphylococcus aureus (GC 4544): 1 µg/mL (≈ 0.708 µM)
  MIC Staphylococcus aureus (GC 4545): 1 µg/mL (≈ 0.708 µM)
Staphylococcus sp.; [3]
  MIC Staphylococcus aureus (ATCC 29213): 1 µg/mL (≈ 0.708 µM)
  MIC Staphylococcus aureus (GC 1131): 1 µg/mL (≈ 0.708 µM)
  MIC Staphylococcus aureus (GC 3051): 1 µg/mL (≈ 0.708 µM)
  MIC Staphylococcus aureus (GC 3053): 2 µg/mL (≈ 1.42 µM)
  MIC Staphylococcus aureus (GC 4541): 1 µg/mL (≈ 0.708 µM)
  MIC Staphylococcus aureus (GC 4542): 1 µg/mL (≈ 0.708 µM)
  MIC Staphylococcus aureus (GC 4544): 1 µg/mL (≈ 0.708 µM)
  MIC Staphylococcus aureus (GC 4545): 1 µg/mL (≈ 0.708 µM)
Staphylococcus sp.; strain GC 4543, 18 hours at 35° C.
  MIC Staphylococcus aureus-SMITH (GC 4543): 1 µg/mL (≈ 0.708 µM)
Staphylococcus sp.; [4]
  MIC Staphylococcus aureus-SMITH (GC 4543): 1 µg/mL (≈ 0.708 µM)
Staphylococcus sp.; strain GC 4546
  MIC Staphylococcus haemolyticus (GC 4546): 1 µg/mL (≈ 0.708 µM)
Staphylococcus sp.; [5]
  MIC Staphylococcus haemolyticus (GC 4546): 1 µg/mL (≈ 0.708 µM)
Staphylococcus sp.; strain GC 4547
  MIC Coagulase Negative Staphylococcus (GC 4547): 1 µg/mL (≈ 0.708 µM)
Staphylococcus sp.; [6]
  MIC Coagulase Negative Staphylococcus (GC 4547): 1 µg/mL (≈ 0.708 µM)
Staphylococcus sp.; strain GC 4548
  MIC Coagulase Negative Staphylococcus (GC 4548): 1 µg/mL (≈ 0.708 µM)
Staphylococcus sp.; [7]
  MIC Coagulase Negative Staphylococcus (GC 4548): 1 µg/mL (≈ 0.708 µM)
Staphylococcus sp.; strain GC 4549
  MIC Coagulase Negative Staphylococcus (GC 4549): 1 µg/mL (≈ 0.708 µM)
Staphylococcus sp.; [8]
  MIC Coagulase Negative Staphylococcus (GC 4549): 1 µg/mL (≈ 0.708 µM)
Staphylococcus sp.; strain GC 4551
  MIC Coagulase Negative Staphylococcus (GC 4551): 1 µg/mL (≈ 0.708 µM)
Staphylococcus sp.; [9]
  MIC Coagulase Negative Staphylococcus (GC 4551): 1 µg/mL (≈ 0.708 µM)
Staphylococcus sp.; strain GC 6257
  MIC Coagulase Negative Staphylococcus (GC 6257): <0.5 µg/mL
Staphylococcus sp.; [10]
  MIC Coagulase Negative Staphylococcus (GC 6257): <0.5 µg/mL
Streptococcus sp.
  MIC Streptococcus agalactiae (GC 4564): <0.5 µg/mL
  MIC Streptococcus pneumoniae (GC 1894): <0.5 µg/mL
  MIC Streptococcus pneumoniae (GC 4565): 1 µg/mL (≈ 0.708 µM)
  MIC Streptococcus pneumonine (ATCC 6301): <0.5 µg/mL
  MIC Streptococcus pyogenes (GC 4563): <0.5 µg/mL
[1]
  median effective dose (ED50), Enterococcus faecalis (GC 6189): 0.41 mg/kg
[2]
  median effective dose (ED50), Staphylococcus aureus-SMITH (GC 4543): 0.19 mg/kg

## Cc1cccc(C2OCC3OC(OC4C(CO)OC(Oc5ccc(CC6NC(=O)C(C(C)c7ccccc7)NC(=O)CNC(=O)C(CO)NC(=O)C(C(O)C7CNC(=N)N7C7OC(CO)C(O)C(O)C7O)NC(=O)C(C(O)C7CNC(=N)N7)NC6=O)cc5)C(O)C4O)C(O)C(O)C3O2)c1 (stereo not drawn) [Example 135, Cyclo[glycyl-β-methylphenylalanyl-O-[4-O-[4,6-O-(3-methylbenzylidene)hexopyranosyl]-hexopyranosyl]tyrosyl-3-(2-iminoimidazolidin-4-yl)seryl-3-(3-hexopyranosyl-2-iminoimidazolidin-4-yl)serylseryl]]
Enterococcus sp.
  MIC Enterococccus avium (GC 4558): 2 µg/mL (≈ 1.43 µM)
  MIC Enterococccus faecalis (ATCC 29212): 2 µg/mL (≈ 1.43 µM)
  MIC Enterococccus faecalis (GC 2691): 2 µg/mL (≈ 1.43 µM)
  MIC Enterococccus faecalis (GC 3059): 2 µg/mL (≈ 1.43 µM)
  MIC Enterococccus faecalis (GC 4552): 2 µg/mL (≈ 1.43 µM)
  MIC Enterococccus faecalis (GC 4553): 2 µg/mL (≈ 1.43 µM)
  MIC Enterococccus faecalis (GC 4554): 2 µg/mL (≈ 1.43 µM)
  MIC Enterococccus faecalis (GC 6189): 2 µg/mL (≈ 1.43 µM)
  MIC Enterococccus faecium (GC 2243): 2 µg/mL (≈ 1.43 µM)
  MIC Enterococccus faecium (GC 4556): 2 µg/mL (≈ 1.43 µM)
  MIC Enterococccus faecium (GC 4557): 2 µg/mL (≈ 1.43 µM)
  MIC Enterococcus faecalis (GC 2242): 2 µg/mL (≈ 1.43 µM)
Escherichia coli
  MIC Escherichia coli (ATCC 25922): 32 µg/mL (≈ 22.9 µM)
  MIC Escherichia coli (GC 4559): 32 µg/mL (≈ 22.9 µM)
  MIC Escherichia coli (GC 4560): 0.5 µg/mL (≈ 0.358 µM)
Staphylococcus sp.; [11]
  MIC Coagulase Negative Staphylococcus (GC 4547): 1 µg/mL (≈ 0.716 µM)
  MIC Coagulase Negative Staphylococcus (GC 4548): 0.5 µg/mL (≈ 0.358 µM)
  MIC Coagulase Negative Staphylococcus (GC 4549): 0.5 µg/mL (≈ 0.358 µM)
  MIC Coagulase Negative Staphylococcus (GC 4551): 1 µg/mL (≈ 0.716 µM)
  MIC Coagulase Negative Staphylococcus (GC 6257): 0.5 µg/mL (≈ 0.358 µM)
  MIC Staphylococcus aureus-SMITH (GC 4543): 1 µg/mL (≈ 0.716 µM)
  MIC Staphylococcus haemolyticus (GC 4546): 0.5 µg/mL (≈ 0.358 µM)
Staphylococcus sp.
  MIC Staphylococcus aureus (ATCC 29213): 1 µg/mL (≈ 0.716 µM)
  MIC Staphylococcus aureus (GC 1131): 1 µg/mL (≈ 0.716 µM)
  MIC Staphylococcus aureus (GC 3051): 1 µg/mL (≈ 0.716 µM)
  MIC Staphylococcus aureus (GC 3053): 1 µg/mL (≈ 0.716 µM)
  MIC Staphylococcus aureus (GC 4541): 1 µg/mL (≈ 0.716 µM)
  MIC Staphylococcus aureus (GC 4542): 1 µg/mL (≈ 0.716 µM)
  MIC Staphylococcus aureus (GC 4544): 2 µg/mL (≈ 1.43 µM)
  MIC Staphylococcus aureus (GC 4545): 1 µg/mL (≈ 0.716 µM)
Staphylococcus sp.; [3]
  MIC Staphylococcus aureus (ATCC 29213): 1 µg/mL (≈ 0.716 µM)
  MIC Staphylococcus aureus (GC 1131): 1 µg/mL (≈ 0.716 µM)
  MIC Staphylococcus aureus (GC 3051): 1 µg/mL (≈ 0.716 µM)
  MIC Staphylococcus aureus (GC 3053): 1 µg/mL (≈ 0.716 µM)
  MIC Staphylococcus aureus (GC 4541): 1 µg/mL (≈ 0.716 µM)
  MIC Staphylococcus aureus (GC 4542): 1 µg/mL (≈ 0.716 µM)
  MIC Staphylococcus aureus (GC 4544): 2 µg/mL (≈ 1.43 µM)
  MIC Staphylococcus aureus (GC 4545): 1 µg/mL (≈ 0.716 µM)
Staphylococcus sp.; [4]
  MIC Staphylococcus aureus-SMITH (GC 4543): 1 µg/mL (≈ 0.716 µM)
Staphylococcus sp.; [5]
  MIC Staphylococcus haemolyticus (GC 4546): 0.5 µg/mL (≈ 0.358 µM)
Staphylococcus sp.; [6]
  MIC Coagulase Negative Staphylococcus (GC 4547): 1 µg/mL (≈ 0.716 µM)
Staphylococcus sp.; [7]
  MIC Coagulase Negative Staphylococcus (GC 4548): 0.5 µg/mL (≈ 0.358 µM)
Staphylococcus sp.; [8]
  MIC Coagulase Negative Staphylococcus (GC 4549): 0.5 µg/mL (≈ 0.358 µM)
Staphylococcus sp.; [9]
  MIC Coagulase Negative Staphylococcus (GC 4551): 1 µg/mL (≈ 0.716 µM)
Staphylococcus sp.; [10]
  MIC Coagulase Negative Staphylococcus (GC 6257): 0.5 µg/mL (≈ 0.358 µM)
Streptococcus sp.
  MIC Streptococcus agalactiae (GC 4564): 0.25 µg/mL (≈ 0.179 µM)
  MIC Streptococcus pneumoniae (GC 1894): <0.06 µg/mL
  MIC Streptococcus pneumoniae (GC 4565): <0.06 µg/mL
  MIC Streptococcus pneumonine (ATCC 6301): <0.06 µg/mL
  MIC Streptococcus pyogenes (GC 4563): 0.25 µg/mL (≈ 0.179 µM)
[1]
  median effective dose (ED50), Enterococcus faecalis (GC 6189): 0.26 mg/kg
[2]
  median effective dose (ED50), Staphylococcus aureus-SMITH (GC 4543): 0.07 mg/kg
